According to patent US5302621A, “Azasteroid compounds for the treatment of prostatic hypertrophy, their preparation and use” (Sankyo Company, Limited, priority 1990, dated 1994):

Key:
rat 5α-reductase = test: Assay of Rat 5α-reductase Inhibition; format: biochemical, rat (Sprague-Dawley); conditions: 10^-8 M test compound; rat prostate 5α-reductase, 1 μM [14C] testosterone, pH 6.5, 37° C., 15 to 30 minutes
Procedure: The prostatic lobes of a mature male rat (body weight 350-450 g, Sprague-Dawley strain) were cut into small pieces with scissors. About three parts by weight of a buffer solution [20 mM potassium phosphate buffer solution (ph 7.4) containing 0.33M sucrose, 1 mM dithiothreitol, 50 μM nicotinamide adenine dinucleotide phosphate-reduced form (NADPH) and 0.001% PMSF (phenylmethyl sulfonyl fluoride)] were added to one part by weight of the tissue pieces, and the mixture was homogenized first by means of a Polytron (trade mark, KINEMATICA GmbH) homogenizer, and then by means of a Teflon (trade mark) glass homogenizer. The prostatic tissue suspension thus homogenized was then centrifuged (140000×g, 60 minutes) to separate the precipitate.
About three parts by weight of the buffer solution described above were added to one part of the precipitate to suspend it, and the suspension was centrifuged again (140000×g, 60 minutes) to wash it and separate a precipitate, which was regarded as a rat 5α-reductase preparation. Sufficient of the buffer solution described above was added to this precipitate for the protein content of the solution to become between 20 and 40 mg/ml. The solution was frozen and stored at -80° C. The protein content was determined by a Bio-Rad protein assay in which bovine γ-globulin (Cohn Fraction II, Sigma) was used as the protein standard.
5 μl of a dimethyl sulfoxide or ethanol solution in which a test compound to be tested was dissolved were added to 0.5 ml of a 40 mM potassium phosphate buffer solution (pH 6.5) containing rat 5α-reductase (protein content, 1 mg), 1 μM [^14 C] testosterone, 1 mM dithiothreitol and 500 μM NADPH (final concentration 10^-8 M of the test compound), and incubated for 15 to 30 minutes at 37° C. As a control, only the solvent was added to one sample. 2 ml of ethyl acetate containing 10 μg each of testosterone, 5α-dihydrotestosterone and androstenedione were then added to stop the reaction. The mixture was centrifuged (1400×g, 5 minutes). The ethyl acetate layer was separated and transferred to another test tube, where it was evaporated to dryness whilst spraying it with nitrogen gas. The steroids were dissolved in 40 μl of ethyl acetate. The solution was spotted on a thin layer chromatographic plate (LK5DF silica plate, Whatman), and developed with a mixture of ethyl acetate with cyclohexane (1:1 by volume) twice at room temperature. The steroid fraction was identified by color development by ultraviolet radiation or by heating with a […]/10% sulfuric acid solution. The radioactivity on the thin layer chromatographic plate was measured by means of a bio-image analyzer (Fuji Film Co. Ltd.). The enzyme activity was given by the amount [conversion rate (%)] of [^14 C] 5α-dihydro-testosterone which was converted from the [^14 C] testosterone initially added. The rat 5α-reductase inhibiting activity of a test sample was calculated from the following equation: [formula]

[1] = test system: testosterone 5α-reductase; conditions: background, U.S. Pat. No. 4,179,453 and 4,760,071; cited from earlier work

Row | Rat 5α-reductase inhibiting activity: Inhibiting activity (%) (rat 5α-reductase) | SMILES | 5α-reductase inhibitory activity of prior-art compounds, in words [1]
1 | 82.2 | CC(C)(NC(=O)[C@H]1CC[C@H]2[C@@H]3CC[C@H]4NC(=O)CC[C@]4(C)[C@H]3CC[C@]12C)c1ccccc1 [Example No. 37, N-(1-Methyl-1-phenylethyl)-3-oxo-4-aza-5α-androstane-17β-carboxamide] | 
2 | 80.0 | C[C@]12C=CC(=O)N[C@@H]1CC[C@@H]1[C@@H]2CC[C@]2(C)[C@@H](C(=O)NN(c3ccccc3)c3ccccc3)CC[C@@H]12 [Example No. 65, N,N-Diphenyl-3-oxo-4-aza-5α-androst-1-ene-17β-carbohydrazide] | 
3 | 74.6 | C[C@]12C=CC(=O)N[C@@H]1CC[C@@H]1[C@@H]2CC[C@]2(C)[C@@H](C(=O)NC(Cc3ccccc3)c3ccccc3)CC[C@@H]12 (stereo partly drawn) [Example No. 8, N-(1,2-Diphenylethyl)-3-oxo-4-aza-5α-androst-1-ene-17β-carboxamide] | 
4 | 30.0 | CC(C)(C)NC(=O)C1CCC2C3CCC4NC(=O)C=CC4(C)C3CCC12C (centres unmarked) [Compound A2, reference compound] | quite a potent activity
5 | 73.2 | COc1ccc(C(C)(C)NC(=O)[C@H]2CC[C@H]3[C@@H]4CC[C@H]5NC(=O)C=C[C@]5(C)[C@H]4CC[C@]23C)cc1 [Example No. 44, N-[1-(4-Methoxyphenyl)-1-methylethyl]-3-oxo-4-aza-5α-androst-1-ene-17β-carboxamide] | 
6 | 80.5 | C[C@]12C=CC(=O)N[C@@H]1CC[C@@H]1[C@@H]2CC[C@]2(C)[C@@H](C(=O)N[C@H](c3ccccc3)[C@@H](O)c3ccccc3)CC[C@@H]12 [Example No. 73, N-[(1R,2S)-2-Hydroxy-1,2-diphenylethyl]-3-oxo-4-aza-5α-androst-1-ene-17β-carboxamide] | 
7 | 72.3 | CN1C(=O)CC[C@@]2(C)C1=CC[C@H]1[C@@H]3CC[C@H](C(=O)NC(C)(C)c4ccccc4)[C@@]3(C)CC[C@@H]12 [Example No. 42, N-(1-Methyl-1-phenylethyl)-4-methyl-3-oxo-4-aza-androst-5-ene-17β-carboxamide] | 
8 | 88.6 | CN1C(=O)CC[C@]2(C)[C@H]3CC[C@]4(C)[C@@H](C(=O)NC(C)(C)c5ccccc5)CC[C@H]4[C@@H]3CC[C@@H]12 [Example No. 40, N-(1-Methyl-1-phenylethyl)-4-methyl-3-oxo-4-aza-5α-androstane-17β-carboxamide] | 

The remaining lines, values behind:

Row | SMILES | Rat 5α-reductase inhibiting activity: Inhibiting activity (%) (rat 5α-reductase) | 5α-reductase inhibitory activity of prior-art compounds, in words [1]
9 | Cc1ccc(C[C@H](NC(=O)[C@H]2CC[C@H]3[C@@H]4CC[C@H]5NC(=O)CC[C@]5(C)[C@H]4CC[C@]23C)c2ccccc2)cc1 [Example No. 62, N-[(S)-2-(4-Methylphenyl)-1-phenylethyl]-3-oxo-4-aza-5α-androstane-17β-carboxamide] | 90.1 | 
10 | CCN(CC)C(=O)C1CCC2C3CCC4NC(=O)C=CC4(C)C3CCC12C (centres unmarked) [Compound A1] |  | quite a potent activity
11 | C[C@]12CCC(=O)N[C@@H]1CC[C@@H]1[C@@H]2CC[C@]2(C)[C@@H](C(=O)NC(c3ccccc3)c3ccccc3)CC[C@@H]12 [Example No. 1, N-(Diphenylmethyl)-3-oxo-4-aza-5α-androstane-17β-carboxamide] | 89.2 | 
12 | C[C@]12CCC(=O)N[C@@H]1CC[C@@H]1[C@@H]2CC[C@]2(C)[C@@H](C(=O)NC(Cc3ccccc3)c3ccccc3)CC[C@@H]12 (stereo partly drawn) [Example No. 3, N-(1,2-Diphenylethyl)-3-oxo-4-aza-5α-androstane-17β-carboxamide] | 89.1 | 
13 | C[C@]12CCC(=O)N[C@@H]1CC[C@@H]1[C@@H]2CC[C@]2(C)[C@@H](C(=O)N(Cc3ccccc3)Cc3ccccc3)CC[C@@H]12 [Example No. 4, N,N-Dibenzyl-3-oxo-4-aza-5α-androstane-17β-carboxamide] | 74.1 | 
14 | CN1C(=O)CC[C@]2(C)[C@H]3CC[C@]4(C)[C@@H](C(=O)NC(C)(c5ccccc5)c5ccccc5)CC[C@H]4[C@@H]3CC[C@@H]12 [Example No. 26, N-(1,1-Diphenylethyl)-4-methyl-3-oxo-4-aza-5α-androstane-17β-carboxamide] | 87.3 | 
15 | CN1C(=O)CC[C@]2(C)[C@H]3CC[C@]4(C)[C@@H](C(=O)NC(c5ccccc5)c5ccccc5)CC[C@H]4[C@@H]3CC[C@@H]12 [Example No. 20, N-(Diphenylmethyl)-4-methyl-3-oxo-4-aza-5α-androstane-17β-carboxamide] | 86.7 | 
16 | C[C@]12CC[C@H]3[C@@H](CC=C4NC(=O)CC[C@@]43C)[C@@H]1CC[C@@H]2C(=O)NC(Cc1ccccc1)c1ccccc1 (stereo partly drawn) [Example No. 12, N-(1,2-Diphenylethyl)-3-oxo-4-azaandrost-5-ene-17β-carboxamide] | 78.4 | 
